Results published in US20240100074A1, “Clinical Dosing Schedule of Inositol Phosphate Oligo(Ethylene Glycol) Compounds” (VIFOR (INTERNATIONAL) AG, priority 2021, published 2024).
Entries after “also recorded” stand apart in the source; their conditions may differ. Each block holds one compound with its values, some of them ahead of it.

Experiments:
[1] = system: cardiovascular calcifications; conditions: patients on hemodialysis, 1-year treatment; cited from earlier work
[2] = system: Abcc6−/− mice (mouse model of PXE); assay: Treatment (reversal) study: histopathology and calcium assay of muzzle skin in old mice; assay type: in vivo; conditions: 12-week-old mice, osmotic pump 4 mg/kg/day for 12 weeks, analysed at 24 weeks of age
Method: Abcc6^−/− knock-out mice (Abcc6^−/−) on C57BL/6J background were generated as described previously (J. F. Klement et al., Mol Cell Biol 2005, 25, 8299). C57BL/6J mice from The Jackson Laboratory (Bar Harbor, ME) were used as wild-type controls (WT). In prevention study, 6-week-old Abcc6^−/− mice were administered with (I a) by periodic subcutaneous injections or continuous administration via subcutaneous ALZET osmotic pump model 2006 (DURECT Corp, Cupertino, CA) for duration of 6 weeks. In reversal study, 12-week-old Abcc6^−/− mice were administered (I a) at 4 mg/kg/day via osmotic pumps for 12 weeks. […]
Muzzle skin biopsies (left side) from euthanized mice were collected and fixed in 10% phosphate-buffered formalin and embedded in paraffin. […] To quantify the mineral deposition, muzzle skin biopsies (right side) were harvested and decalcified with 1.0 M HCl for 48 hours at room temperature. Solubilized calcium was then determined by a colorimetric assay (J. Huang et al., J Invest Dermatol 2019, 139, 1254; Q. Li, J. Huang et al., J Invest Dermatol 2019, 139, 360). […] The concentrations of (I a) in heparin plasma were analyzed on an ultra-fast liquid chromatography, as described previously (A. E. Schantl et al., Nat Commun 2020, 11, 721). The data was analyzed using Kruskal-Wallis nonparametric test. […]

[3] = Profile of (I a) compared to pyrophosphate and bisphosphonates
[4] = system: Abcc6−/− mice (mouse model of PXE); assay: Prevention study: quantitative chemical calcium assay of muzzle skin biopsies; assay type: in vivo; conditions: 6 weeks
Method: (§1) Abcc6^−/− knock-out mice (Abcc6^−/−) on C57BL/6J background were generated as described previously (J. F. Klement et al., Mol Cell Biol 2005, 25, 8299). C57BL/6J mice from The Jackson Laboratory (Bar Harbor, ME) were used as wild-type controls (WT). In prevention study, 6-week-old Abcc6^−/− mice were administered with (I a) by periodic subcutaneous injections or continuous administration via subcutaneous ALZET osmotic pump model 2006 (DURECT Corp, Cupertino, CA) for duration of 6 weeks. In reversal study, 12-week-old Abcc6^−/− mice were administered (I a) at 4 mg/kg/day via osmotic pumps for 12 weeks. All mice were maintained on a standard diet and sacrificed at 12 weeks of age, 6 weeks after initiation of treatment (prevention study), or at 24 weeks of age, 12 weeks after initiation of treatment (reversal study). All protocols were approved by the Institutional Animal Care and Use Committee of Thomas Jefferson University.
Muzzle skin biopsies (left side) from euthanized mice were collected and fixed in 10% phosphate-buffered formalin and embedded in paraffin. […] To quantify the mineral deposition, muzzle skin biopsies (right side) were harvested and decalcified with 1.0 M HCl for 48 hours at room temperature. Solubilized calcium was then determined by a colorimetric assay (J. Huang et al., J Invest Dermatol 2019, 139, 1254; Q. Li, J. Huang et al., J Invest Dermatol 2019, 139, 360). […] The concentrations of (I a) in heparin plasma were analyzed on an ultra-fast liquid chromatography, as described previously (A. E. Schantl et al., Nat Commun 2020, 11, 721). The data was analyzed using Kruskal-Wallis nonparametric test.
The Abcc6^−/− mice were administered (I a) by subcutaneous implantation of osmotic pumps at doses of 0.16, 0.8, 4, 20, and 100 mg/kg/day. […] The extent of ectopic calcification after 6 weeks of treatment was analyzed by two independent assays measuring calcification in the dermal sheath of vibrissae in muzzle skin, an early and reliable biomarker in this mouse model of PXE. One piece of muzzle skin was processed for semi-quantitative histological evaluation. […]

[5] = subcutaneous administration, Sprague Dawley rats; cited from earlier work
[6] = Plasma concentrations of (I a) in treated Abcc6−/− mice; assay type: in vivo, mouse
Method: (§2) Muzzle skin biopsies (left side) from euthanized mice were collected and fixed in 10% phosphate-buffered formalin and embedded in paraffin. Paraffin sections (6 μm) were stained with Hematoxylin and Eosin or von Kossa using standard procedures. To quantify the mineral deposition, muzzle skin biopsies (right side) were harvested and decalcified with 1.0 M HCl for 48 hours at room temperature. Solubilized calcium was then determined by a colorimetric assay (J. Huang et al., J Invest Dermatol 2019, 139, 1254; Q. Li, J. Huang et al., J Invest Dermatol 2019, 139, 360). The values were normalized to tissue weight. Whole blood was collected by retro-orbital bleeding or cardiac puncture. For subcutaneously injected mice, whole blood was collected 30 minutes after injection of (I a). Whole blood was collected at 2 days, 3 weeks, and 6 weeks after treatment initiation in mice receiving (I a). The concentrations of (I a) in heparin plasma were analyzed on an ultra-fast liquid chromatography, as described previously (A. E. Schantl et al., Nat Commun 2020, 11, 721). The data was analyzed using Kruskal-Wallis nonparametric test.
(I a) was undetectable in plasma of untreated Abcc6^−/− mice.
The Tmax of (I a) in plasma after subcutaneous administration in Sprague Dawley rats was reported to be about 30 minutes after injection, the inventors therefore measured (I a) concentrations in plasma 30 minutes after injection in the Abcc6^−/− mice.

[7] = system: Abcc6−/− mice (mouse model of PXE); assay: Prevention study: histologic (von Kossa) evaluation of vibrissae calcification in muzzle skin; assay type: in vivo; conditions: for calcification in the dermal sheath of vibrissae in muzzle skin (von Kossa) / inhibition of ectopic calcification: osmotic pump
Method: as §1, §2
The Abcc6^−/− mice were administered (I a) by subcutaneous implantation of osmotic pumps at doses of 0.16, 0.8, 4, 20, and 100 mg/kg/day. The untreated wild-type and Abcc6^−/− mice served as negative and positive controls of ectopic calcification. Treatment was initiated at 6 weeks of age, a time point at the earliest stages of ectopic calcification in the Abcc6^−/− mice. The extent of ectopic calcification after 6 weeks of treatment was analyzed by two independent assays measuring calcification in the dermal sheath of vibrissae in muzzle skin, an early and reliable biomarker in this mouse model of PXE. One piece of muzzle skin was processed for semi-quantitative histological evaluation. […] The therapeutic effects of (I a) were substantiated by the calcium content in another muzzle skin biopsy measured using a quantitative chemical assay (FIG. 2A).
The inventors next examined whether periodic, bolus subcutaneous injections of (I a) at the same dose of 4 mg/kg/day, would have similar therapeutic benefits. Six-week-old Abcc6^−/− mice were administered (I a) by subcutaneous injections three times per week corresponding to 4 mg/kg/day. […] Thus, subcutaneous injection of (I a) is effective, albeit less than with continuous delivery at the same dose of 4 mg/kg/day on inhibition of ectopic calcification.
Three additional dose levels of (I a) at weekly subcutaneous injections for a duration of 6 weeks were tested to evaluate the inhibitory effects of (I a) (FIG. 1A). […] The semi-quantitative histologic evaluations of (I a) treatment were consistent with the calcium contents in the muzzle skin measured by a chemical assay (FIG. 2A).

SMILES: O=P(O)(O)O[C@H]1[C@H](OP(=O)(O)O)[C@@H](OP(=O)(O)O)[C@H](OP(=O)(O)O)[C@@H](OP(=O)(O)O)[C@H]1OP(=O)(O)O [IP6]
progression of cardiovascular calcifications [1]: stop the progression, albeit without regression

subcutaneous bioavailability [3]: high
plasma concentrations versus dose ([6]; osmotic pump, 0.16 to 100 mg/kg/day): dose-dependent
SMILES: COCCOCCOC1C(OP(=O)(O)O)C(OCCOCCOC)C(OP(=O)(O)O)C(OP(=O)(O)O)C1OP(=O)(O)O (centres unmarked) [(I a), bis-oligoethylene myo-inositol tetrakisphosphate]
degree of ectopic calcification in muzzle skin after treatment [2]: prevented further calcification; also recorded: calcification similar to 12-week-old Abcc6^−/− control mice; also recorded: stabilized existing calcification
degree of ectopic calcification in muzzle skin after treatment ([2]; listed as INS-3001): stabilize existing calcification
anti-osteoclastic activity [3]: no anti-osteoclastic activity
local tolerability [3]: good
minimum active dose / minimum effective dose ([4]; continuous osmotic pump administration): 0.8 mg/kg/day
inhibition of ectopic calcification by calcium assay ([4]; osmotic pump, 0.8 mg/kg/day): 59%
inhibition of ectopic calcification by calcium assay ([4]; subcutaneous injections three times per week corresponding to 4 mg/kg/day): 63%
Tmax in plasma [5]: about 30 minutes
plasma levels over time ([6]; 2 days, 3 weeks and 6 weeks after implantation of the osmotic pump): remained largely constant; also recorded: largely consistent during treatment
plasma levels 30 minutes after subcutaneous injection ([6]; bolus subcutaneous injection versus pump administered groups): much higher than that in the pump administered groups
plasma concentrations versus dose, all groups ([6]; osmotic pump (prior to sacrifice) or 30 minutes after subcutaneous injection): scaled relatively well with the dose administered
calcification in the dermal sheath of vibrissae in muzzle skin (von Kossa) ([7]; 0.16 mg/kg/day, 6 weeks): no effects
calcification in the dermal sheath of vibrissae in muzzle skin (von Kossa) ([7]; 0.8 mg/kg/day, 6 weeks): evident but significantly reduced calcification
calcification in the dermal sheath of vibrissae in muzzle skin (von Kossa) ([7]; 4 mg/kg/day (and above), 6 weeks, from 6 weeks of age, 4 mg/kg/day): very little, if any, calcification; also recorded: little, if any, calcification; also recorded: completely prevented ectopic calcification; also recorded: complete response
inhibition of ectopic calcification ([7]; 4 mg/kg/day, 6 weeks): ~100%
inhibition of ectopic calcification ([7]; 100 mg/kg/day, 6 weeks): ~100%
calcification, subcutaneous injections overall ([7]; subcutaneous injections at different doses and frequencies (thrice weekly and once weekly)): decreased calcification; also recorded: prevented calcification
calcification in the muzzle skin (histology) ([7]; subcutaneous injections three times per week corresponding to 4 mg/kg/day, 6 weeks): significantly reduced calcification
ectopic calcification in the muzzle skin (histology) ([7]; weekly subcutaneous injection, 0.8 mg/kg/day, 6 weeks): significantly reduced ectopic calcification
calcification in the muzzle skin (histology) ([7]; weekly subcutaneous injection, 4 mg/kg/day, 6 weeks): significantly reduced calcification
